Source: ChEMBL document CHEMBL4828765, “Design and Development of a Chemical Probe for Pseudokinase Ca2+/calmodulin-Dependent Ser/Thr Kinase” (J Med Chem, 2021)

Key:
[1] = target: Casein kinase I isoform epsilon (Homo sapiens, UniProt P49674); test: Binding affinity to CSNK1E (unknown origin) assessed as change in melting temperature by SYPRO orange dye based DSF assay
[2] = target: T1, Tyrosine-protein kinase Mer (Homo sapiens) (UniProt Q12866); test: Binding affinity to MERTK (571 to 864 residue) (unknown origin) expressed in Escherichia coli Rosetta cells assessed as change in melting temperature by SYPRO orange dye based DSF assay
T1 sequence (whole entry): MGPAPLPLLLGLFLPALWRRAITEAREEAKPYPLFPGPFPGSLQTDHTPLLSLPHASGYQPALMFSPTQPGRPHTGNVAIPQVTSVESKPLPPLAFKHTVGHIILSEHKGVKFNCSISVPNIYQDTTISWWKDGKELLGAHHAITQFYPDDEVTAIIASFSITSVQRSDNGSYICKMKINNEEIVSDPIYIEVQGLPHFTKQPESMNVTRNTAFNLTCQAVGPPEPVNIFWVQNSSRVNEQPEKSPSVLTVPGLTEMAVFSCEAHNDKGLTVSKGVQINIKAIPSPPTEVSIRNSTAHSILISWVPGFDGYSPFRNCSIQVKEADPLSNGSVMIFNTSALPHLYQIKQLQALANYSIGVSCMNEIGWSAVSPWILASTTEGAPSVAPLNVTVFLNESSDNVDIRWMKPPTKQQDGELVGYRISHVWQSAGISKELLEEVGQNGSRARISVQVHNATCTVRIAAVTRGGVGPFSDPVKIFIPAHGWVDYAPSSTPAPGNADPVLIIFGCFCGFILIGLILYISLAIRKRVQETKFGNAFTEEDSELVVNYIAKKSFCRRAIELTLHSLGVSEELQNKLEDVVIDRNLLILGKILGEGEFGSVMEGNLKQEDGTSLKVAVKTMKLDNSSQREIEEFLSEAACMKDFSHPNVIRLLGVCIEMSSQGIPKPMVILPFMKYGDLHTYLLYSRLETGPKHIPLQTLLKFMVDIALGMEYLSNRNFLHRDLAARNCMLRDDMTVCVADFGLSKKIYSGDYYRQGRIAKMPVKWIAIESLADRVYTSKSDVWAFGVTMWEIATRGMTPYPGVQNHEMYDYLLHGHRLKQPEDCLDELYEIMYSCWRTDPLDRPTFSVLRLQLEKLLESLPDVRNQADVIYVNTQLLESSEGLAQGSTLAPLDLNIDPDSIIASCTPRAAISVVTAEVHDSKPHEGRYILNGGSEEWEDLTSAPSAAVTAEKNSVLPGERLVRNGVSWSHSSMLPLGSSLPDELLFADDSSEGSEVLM

[3] = species on record: Homo sapiens; test: Binding affinity to MERTK-AXL mutant (unknown origin) expressed in Escherichia coli Rosetta cells assessed as change in melting temperature by SYPRO orange dye based DSF assay
[4] = target: T2, Peripheral plasma membrane protein CASK (Homo sapiens) (UniProt O14936)
T2 sequence (whole entry): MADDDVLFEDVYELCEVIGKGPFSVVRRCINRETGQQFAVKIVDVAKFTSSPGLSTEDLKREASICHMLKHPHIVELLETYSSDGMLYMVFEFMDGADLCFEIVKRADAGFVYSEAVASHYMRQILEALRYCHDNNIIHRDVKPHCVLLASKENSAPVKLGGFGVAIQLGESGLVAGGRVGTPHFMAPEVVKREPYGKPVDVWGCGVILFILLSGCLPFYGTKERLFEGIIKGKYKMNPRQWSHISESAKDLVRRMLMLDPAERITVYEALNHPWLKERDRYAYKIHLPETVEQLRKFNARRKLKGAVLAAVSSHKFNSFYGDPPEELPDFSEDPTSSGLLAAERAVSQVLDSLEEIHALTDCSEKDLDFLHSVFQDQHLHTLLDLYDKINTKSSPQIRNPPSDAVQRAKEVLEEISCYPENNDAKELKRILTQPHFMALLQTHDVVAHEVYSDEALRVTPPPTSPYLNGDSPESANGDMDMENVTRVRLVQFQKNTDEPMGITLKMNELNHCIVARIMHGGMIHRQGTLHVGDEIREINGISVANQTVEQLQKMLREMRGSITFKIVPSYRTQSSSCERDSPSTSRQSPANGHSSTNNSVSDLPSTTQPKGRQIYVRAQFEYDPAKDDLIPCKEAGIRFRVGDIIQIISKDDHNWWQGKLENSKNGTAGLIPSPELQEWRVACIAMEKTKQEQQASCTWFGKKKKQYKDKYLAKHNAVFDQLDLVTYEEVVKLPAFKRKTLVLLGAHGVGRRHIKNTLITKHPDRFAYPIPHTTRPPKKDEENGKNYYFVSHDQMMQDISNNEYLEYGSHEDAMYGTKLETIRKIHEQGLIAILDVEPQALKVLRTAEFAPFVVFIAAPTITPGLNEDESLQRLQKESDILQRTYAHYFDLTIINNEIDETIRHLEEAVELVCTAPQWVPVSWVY
Description: Binding affinity to recombinant N-terminal His-tagged CASK (1 to 337 residues) (unknown origin) expressed in Escherichia coli assessed as change in melting temperature by SYPRO orange dye based DSF assay

[5] = target: T3, Tyrosine-protein kinase ABL1 (Homo sapiens, UniProt P00519)
Description: Binding affinity to non-phosphorylated ABL1 (unknown origin) assessed as change in melting temperature by SYPRO orange dye based DSF assay

[6] = target: T4, Tyrosine-protein kinase receptor TYRO3 (Homo sapiens, UniProt Q06418); test: Inhibition of tracer K5 binding to NanoLuc-fused TYRO3 (unknown origin) expressed in HEK293T cells measured after 2 hrs by NanoBRET assay; type: cell-based
T4 sequence (Q06418 whole entry): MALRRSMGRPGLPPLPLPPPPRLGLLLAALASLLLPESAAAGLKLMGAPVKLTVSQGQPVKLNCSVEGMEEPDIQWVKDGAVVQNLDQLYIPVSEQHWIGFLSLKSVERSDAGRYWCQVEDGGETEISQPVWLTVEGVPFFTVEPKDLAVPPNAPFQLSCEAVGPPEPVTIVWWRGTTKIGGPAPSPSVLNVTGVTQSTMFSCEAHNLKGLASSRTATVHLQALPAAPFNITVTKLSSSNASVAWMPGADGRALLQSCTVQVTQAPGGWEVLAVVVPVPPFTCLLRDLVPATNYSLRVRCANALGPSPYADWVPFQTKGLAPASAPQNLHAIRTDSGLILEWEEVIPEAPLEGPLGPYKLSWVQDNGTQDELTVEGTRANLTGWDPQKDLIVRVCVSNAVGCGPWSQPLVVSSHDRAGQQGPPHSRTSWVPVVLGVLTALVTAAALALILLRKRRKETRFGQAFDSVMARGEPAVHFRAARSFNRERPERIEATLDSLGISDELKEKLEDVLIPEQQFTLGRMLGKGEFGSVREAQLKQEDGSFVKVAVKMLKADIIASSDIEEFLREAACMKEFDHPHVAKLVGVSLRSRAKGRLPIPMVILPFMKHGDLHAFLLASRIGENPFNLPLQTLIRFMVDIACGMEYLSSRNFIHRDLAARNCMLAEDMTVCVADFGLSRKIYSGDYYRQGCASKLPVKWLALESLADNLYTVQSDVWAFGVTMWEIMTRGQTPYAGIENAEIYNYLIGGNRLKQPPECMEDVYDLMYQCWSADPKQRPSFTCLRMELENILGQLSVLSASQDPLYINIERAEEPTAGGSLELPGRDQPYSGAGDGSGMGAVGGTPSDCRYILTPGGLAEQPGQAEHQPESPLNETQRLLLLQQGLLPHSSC

[7] = target: T5, Tyrosine-protein kinase Mer (Homo sapiens, UniProt Q12866); test: Inhibition of tracer K5 binding to NanoLuc-fused MERTK (unknown origin) expressed in HEK293T cells measured after 2 hrs by NanoBRET assay; type: cell-based
T5 sequence (Q12866 whole entry): T1 sequence (whole entry)

[8] = target: T6, Tyrosine-protein kinase receptor UFO (Homo sapiens, UniProt P30530); test: Inhibition of tracer K5 binding to NanoLuc-fused AXL (unknown origin) expressed in HEK293T cells measured after 2 hrs by NanoBRET assay; type: cell-based
T6 sequence (P30530 whole entry): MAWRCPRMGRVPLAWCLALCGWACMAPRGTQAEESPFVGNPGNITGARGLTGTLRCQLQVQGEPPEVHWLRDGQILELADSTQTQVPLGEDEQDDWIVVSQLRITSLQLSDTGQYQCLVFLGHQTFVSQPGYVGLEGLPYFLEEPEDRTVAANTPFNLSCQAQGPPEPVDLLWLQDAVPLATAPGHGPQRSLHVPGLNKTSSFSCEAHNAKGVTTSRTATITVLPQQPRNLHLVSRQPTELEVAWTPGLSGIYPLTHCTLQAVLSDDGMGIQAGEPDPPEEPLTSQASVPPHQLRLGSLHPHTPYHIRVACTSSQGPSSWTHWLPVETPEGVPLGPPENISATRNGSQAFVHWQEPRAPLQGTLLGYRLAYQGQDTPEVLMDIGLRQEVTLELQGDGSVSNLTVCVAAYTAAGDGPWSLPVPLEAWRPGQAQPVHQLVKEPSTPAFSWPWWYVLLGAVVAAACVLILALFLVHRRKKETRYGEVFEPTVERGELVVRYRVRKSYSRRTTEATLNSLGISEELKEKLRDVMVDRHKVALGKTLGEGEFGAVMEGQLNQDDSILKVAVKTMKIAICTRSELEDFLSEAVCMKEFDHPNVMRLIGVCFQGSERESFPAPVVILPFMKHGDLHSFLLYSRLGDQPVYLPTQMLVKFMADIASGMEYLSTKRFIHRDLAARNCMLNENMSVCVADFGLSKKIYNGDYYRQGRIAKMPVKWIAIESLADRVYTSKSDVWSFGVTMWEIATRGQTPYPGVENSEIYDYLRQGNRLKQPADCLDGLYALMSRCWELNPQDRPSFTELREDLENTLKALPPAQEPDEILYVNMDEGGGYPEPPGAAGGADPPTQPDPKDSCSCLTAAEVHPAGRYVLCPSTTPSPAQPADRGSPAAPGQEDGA

[9] = target: T3, Tyrosine-protein kinase ABL1; test: Inhibition of tracer K5 binding to NanoLuc-fused ABL1 (unknown origin) expressed in HEK293T cells measured after 2 hrs by NanoBRET assay; type: cell-based

Casein kinase I isoform epsilon, sequence (P49674 whole entry, looked up, canonical isoform): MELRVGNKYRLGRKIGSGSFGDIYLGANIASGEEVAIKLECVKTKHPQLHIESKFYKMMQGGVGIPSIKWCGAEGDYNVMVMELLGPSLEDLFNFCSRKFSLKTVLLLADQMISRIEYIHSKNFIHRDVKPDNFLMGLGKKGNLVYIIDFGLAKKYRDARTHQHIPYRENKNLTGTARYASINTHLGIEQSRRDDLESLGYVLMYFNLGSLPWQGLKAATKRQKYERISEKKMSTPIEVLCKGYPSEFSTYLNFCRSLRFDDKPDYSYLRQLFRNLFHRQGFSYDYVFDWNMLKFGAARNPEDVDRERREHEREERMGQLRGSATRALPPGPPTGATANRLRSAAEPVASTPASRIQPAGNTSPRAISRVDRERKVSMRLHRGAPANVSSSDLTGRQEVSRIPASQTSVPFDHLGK
T3 sequence (P00519 whole entry, the tested form may be a part): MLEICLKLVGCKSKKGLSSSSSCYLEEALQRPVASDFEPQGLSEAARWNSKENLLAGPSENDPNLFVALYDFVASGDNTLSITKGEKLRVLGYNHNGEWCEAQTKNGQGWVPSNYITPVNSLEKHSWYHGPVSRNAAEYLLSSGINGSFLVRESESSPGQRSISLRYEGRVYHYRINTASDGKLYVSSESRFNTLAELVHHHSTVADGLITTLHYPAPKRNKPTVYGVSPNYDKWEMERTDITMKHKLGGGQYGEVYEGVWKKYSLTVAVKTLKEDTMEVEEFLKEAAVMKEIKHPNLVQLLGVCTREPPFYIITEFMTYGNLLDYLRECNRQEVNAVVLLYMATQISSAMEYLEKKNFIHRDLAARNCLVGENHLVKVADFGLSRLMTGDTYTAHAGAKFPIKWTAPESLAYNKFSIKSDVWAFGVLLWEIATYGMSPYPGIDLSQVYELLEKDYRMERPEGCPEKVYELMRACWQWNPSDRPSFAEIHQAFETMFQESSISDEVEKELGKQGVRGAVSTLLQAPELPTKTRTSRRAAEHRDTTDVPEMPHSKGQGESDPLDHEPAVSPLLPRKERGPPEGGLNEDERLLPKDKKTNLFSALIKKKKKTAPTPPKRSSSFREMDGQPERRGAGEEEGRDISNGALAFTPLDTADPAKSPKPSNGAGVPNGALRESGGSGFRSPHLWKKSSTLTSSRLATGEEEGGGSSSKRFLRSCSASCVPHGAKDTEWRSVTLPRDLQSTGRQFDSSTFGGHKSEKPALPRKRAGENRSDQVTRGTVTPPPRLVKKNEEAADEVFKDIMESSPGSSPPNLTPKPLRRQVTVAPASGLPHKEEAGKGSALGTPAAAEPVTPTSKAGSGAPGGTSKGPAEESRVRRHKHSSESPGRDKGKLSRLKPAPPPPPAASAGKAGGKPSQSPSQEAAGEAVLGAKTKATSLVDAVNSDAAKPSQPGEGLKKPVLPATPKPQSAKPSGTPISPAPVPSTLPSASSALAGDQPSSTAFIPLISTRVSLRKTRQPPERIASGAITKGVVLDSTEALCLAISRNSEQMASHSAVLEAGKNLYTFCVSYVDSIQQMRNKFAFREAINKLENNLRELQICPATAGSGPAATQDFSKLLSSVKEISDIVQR

SMILES | deltaTm [1] | deltaTm [2] | deltaTm [3] | deltaTm [4] | deltaTm [5] | IC50 [6] | IC50 [7] | IC50 [8] | IC50 [9]
O=C(NCCCN1CCCC1=O)c1cnc(NCc2cc(Cl)ccc2Cl)nc1NC1CC1 | 4 K | -0.4 K | -0.2 K | 1.4 K | 4.9 K | – | – | – | –
COc1ccc(OC)c(CNc2ncc(C(=O)NCCCN3CCCC3=O)c(NC3CCCC3)n2)c1 | 0.4 K | -0.5 K | -0.2 K | 0.8 K | 0.7 K | – | – | – | –
O=C(NCCCN1CCCC1=O)c1cnc(NCc2ccc(Cl)cc2Cl)nc1NC1CCCC1 | 2.1 K | 0.1 K | 0 K | – | 2.3 K | > 10 µM | > 10 µM | > 10 µM | > 10 µM
O=C(NCCCN1CCCC1=O)c1cnc(NCc2ccc(Br)cc2)nc1NC1CCCC1 | 2.2 K | -0.1 K | 0 K | 1.2 K | 6.8 K | – | – | – | –
O=C(NCCCN1CCCC1=O)c1cnc(NCc2ccccc2Br)nc1NC1CCCC1 | 4.4 K | -0.5 K | -0.1 K | 4.8 K | 7 K | – | – | – | –
O=C(NCCCN1CCCC1=O)c1cnc(NCc2cc(Br)ccc2Br)nc1NC1CCCC1 | 4.4 K | -0.7 K | 0.2 K | – | 6.3 K | – | – | – | –
CN[C@@H]1C[C@H]2O[C@@](C)([C@@H]1OC)n1c3ccccc3c3c4c(c5c6ccccc6n2c5c31)C(=O)NC4 | 2.3 K | 4.8 K | – | – | – | – | – | – | –
O=C(NCCCN1CCCC1=O)c1cnc(NCc2ccccc2)nc1NC1CCCC1 | 4.3 K | 0.5 K | 0.4 K | 0.8 K | 4.5 K | – | – | – | –
O=C(NCCCN1CCCC1=O)c1cnc(NCc2cc(Cl)ccc2Cl)nc1NC1CCCC1 | 4.8 K | -0.7 K | -0.2 K | – | 6 K | – | – | – | –
O=C(NCCCN1CCCC1=O)c1cnc(NCc2cccc(Br)c2)nc1NC1CCCC1 | 6.5 K | 0.6 K | 0.3 K | 3.8 K | 6.9 K | – | – | – | –
O=C(NCCCN1CCCC1=O)c1cnc(NCc2cc(F)ccc2F)nc1NC1CCCC1 | 5.9 K | 0.6 K | 0.3 K | – | 6.1 K | – | 4.48 µM | – | –
CCN(Cc1ccccc1)c1ncc(C(=O)NCCCN2CCCC2=O)c(NC2CCCC2)n1 | – | – | – | – | – | > 10 µM | – | – | –
Cc1ccc(CNc2ncc(C(=O)NCCCN3CCOC3=O)c(NC3CCCCC3)n2)c(Br)c1 | 1.5 K | 0.7 K | -0.1 K | 6 K | 6.2 K | – | – | – | –
O=C(NCCCN1CCCC1=O)c1cnc(NCc2cc(Cl)ccc2Cl)nc1NC1CCCCC1 | 5 K | -0.2 K | 0.1 K | 5.7 K | 7.7 K | – | – | – | –
O=C(NCCCN1CCCC1=O)c1cnc(NCc2ccccc2Cl)nc1NC1CCCC1 | 4.8 K | -0.1 K | -0.2 K | 3.3 K | 5.9 K | – | – | – | –
O=C(NCCCN1CCOC1=O)c1cnc(NCc2cc(Br)ccc2Br)nc1NC1CCCC1 | 3.6 K | -0.6 K | 0.2 K | 5.1 K | 6 K | – | – | – | –
O=C(NCCCN1CCCC1=O)c1cnc(NCc2cc(Cl)ccc2Cl)nc1Nc1ccccc1 | 3.6 K | -0.7 K | -0.3 K | 1.4 K | 2.9 K | – | – | – | –
Cc1ccc(CNc2ncc(C(=O)NCCCN3CCOC3=O)c(NC3CCCC3)n2)c(Br)c1 | 0.1 K | -0.2 K | -0.1 K | 6.1 K | 5.8 K | – | – | – | –
